# Source: the kinase profiling compilation of Christmann-Franck et al. (2016)
# Values joined by “and” are separate entries in the source; they are usually repeats but may differ in a detail not shown here. Equal values may be shown once.
# How the values were obtained:
# Experiment in all cases: radiometric filter-binding kinase assay, Kinase HotSpot
# Details in all cases: compound 0.5 µM; ATP 10 µM
# [1] = target: PDGFRA (human) (UniProt P16234)
# [2] = target: SRPK2 (human) (UniProt P78362)
# [3] = target: CAMK1G (human) (UniProt Q96NX5)
# [4] = target: ROS1 (human) (UniProt P08922)
# [5] = target: ADRBK2 (human) (UniProt P35626)
# [6] = target: CAMKK2 (human) (UniProt Q96RR4)
# Sequence of CAMKK2 (human) (Q96RR4 whole entry, looked up): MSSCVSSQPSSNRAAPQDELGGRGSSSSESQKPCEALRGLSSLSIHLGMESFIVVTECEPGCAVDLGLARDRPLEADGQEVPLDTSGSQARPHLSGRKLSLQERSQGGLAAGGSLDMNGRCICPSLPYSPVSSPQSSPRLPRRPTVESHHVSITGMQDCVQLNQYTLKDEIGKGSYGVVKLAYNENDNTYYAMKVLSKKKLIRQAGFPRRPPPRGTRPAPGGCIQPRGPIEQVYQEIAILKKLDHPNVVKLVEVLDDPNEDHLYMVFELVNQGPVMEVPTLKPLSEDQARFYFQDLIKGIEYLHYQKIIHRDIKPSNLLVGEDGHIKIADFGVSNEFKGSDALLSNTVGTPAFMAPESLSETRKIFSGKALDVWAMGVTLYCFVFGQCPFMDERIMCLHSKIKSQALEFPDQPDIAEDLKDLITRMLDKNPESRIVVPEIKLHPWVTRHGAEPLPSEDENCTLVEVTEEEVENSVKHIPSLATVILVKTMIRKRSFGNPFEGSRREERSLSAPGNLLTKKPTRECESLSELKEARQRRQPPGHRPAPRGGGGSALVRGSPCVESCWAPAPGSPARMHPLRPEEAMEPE
# [7] = target: DAPK3 (human) (UniProt O43293)
# [8] = target: TEK (human) (UniProt Q02763)
# [9] = target: RPS6KA4 KD2 (human) (UniProt O75676)
# [10] = target: CAMK2G (human) (UniProt Q13555)
# [11] = target: DYRK3 (human) (UniProt O43781)
# [12] = target: PRKCG (human) (UniProt P05129)
# [13] = target: ERBB4 (human) (UniProt Q15303)
# [14] = target: PNCK (human) (UniProt Q6P2M8)
# [15] = target: BMX (human) (UniProt P51813)
# [16] = target: LYN (human) (UniProt P07948)
# [17] = target: TAOK2 (human) (UniProt Q9UL54)
# [18] = target: DYRK1B (human) (UniProt Q9Y463)
# [19] = target: TNK2 (human) (UniProt Q07912)
# [20] = target: IKBKB (human) (UniProt O14920)
# [21] = target: GSG2 (human) (UniProt Q8TF76)
# [22] = target: RIPK2 (human) (UniProt O43353)
# Sequence of RIPK2 (human) (O43353 whole entry, looked up): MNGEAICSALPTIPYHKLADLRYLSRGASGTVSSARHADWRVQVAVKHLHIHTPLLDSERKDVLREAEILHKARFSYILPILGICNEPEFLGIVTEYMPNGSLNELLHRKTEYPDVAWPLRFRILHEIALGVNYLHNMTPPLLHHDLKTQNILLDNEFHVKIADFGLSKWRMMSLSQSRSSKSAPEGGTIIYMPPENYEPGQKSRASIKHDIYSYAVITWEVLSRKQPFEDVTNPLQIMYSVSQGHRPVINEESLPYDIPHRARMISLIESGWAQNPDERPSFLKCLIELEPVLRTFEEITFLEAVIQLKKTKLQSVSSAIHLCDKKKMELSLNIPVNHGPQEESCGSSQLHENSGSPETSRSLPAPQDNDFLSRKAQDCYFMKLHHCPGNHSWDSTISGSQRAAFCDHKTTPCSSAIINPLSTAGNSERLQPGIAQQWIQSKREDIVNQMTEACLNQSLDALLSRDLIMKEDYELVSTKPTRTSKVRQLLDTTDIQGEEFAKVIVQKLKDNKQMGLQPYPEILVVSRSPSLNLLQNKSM
# [23] = target: ABL1 (human) (UniProt P00519)
# Sequence of ABL1 (human) (P00519 whole entry, looked up): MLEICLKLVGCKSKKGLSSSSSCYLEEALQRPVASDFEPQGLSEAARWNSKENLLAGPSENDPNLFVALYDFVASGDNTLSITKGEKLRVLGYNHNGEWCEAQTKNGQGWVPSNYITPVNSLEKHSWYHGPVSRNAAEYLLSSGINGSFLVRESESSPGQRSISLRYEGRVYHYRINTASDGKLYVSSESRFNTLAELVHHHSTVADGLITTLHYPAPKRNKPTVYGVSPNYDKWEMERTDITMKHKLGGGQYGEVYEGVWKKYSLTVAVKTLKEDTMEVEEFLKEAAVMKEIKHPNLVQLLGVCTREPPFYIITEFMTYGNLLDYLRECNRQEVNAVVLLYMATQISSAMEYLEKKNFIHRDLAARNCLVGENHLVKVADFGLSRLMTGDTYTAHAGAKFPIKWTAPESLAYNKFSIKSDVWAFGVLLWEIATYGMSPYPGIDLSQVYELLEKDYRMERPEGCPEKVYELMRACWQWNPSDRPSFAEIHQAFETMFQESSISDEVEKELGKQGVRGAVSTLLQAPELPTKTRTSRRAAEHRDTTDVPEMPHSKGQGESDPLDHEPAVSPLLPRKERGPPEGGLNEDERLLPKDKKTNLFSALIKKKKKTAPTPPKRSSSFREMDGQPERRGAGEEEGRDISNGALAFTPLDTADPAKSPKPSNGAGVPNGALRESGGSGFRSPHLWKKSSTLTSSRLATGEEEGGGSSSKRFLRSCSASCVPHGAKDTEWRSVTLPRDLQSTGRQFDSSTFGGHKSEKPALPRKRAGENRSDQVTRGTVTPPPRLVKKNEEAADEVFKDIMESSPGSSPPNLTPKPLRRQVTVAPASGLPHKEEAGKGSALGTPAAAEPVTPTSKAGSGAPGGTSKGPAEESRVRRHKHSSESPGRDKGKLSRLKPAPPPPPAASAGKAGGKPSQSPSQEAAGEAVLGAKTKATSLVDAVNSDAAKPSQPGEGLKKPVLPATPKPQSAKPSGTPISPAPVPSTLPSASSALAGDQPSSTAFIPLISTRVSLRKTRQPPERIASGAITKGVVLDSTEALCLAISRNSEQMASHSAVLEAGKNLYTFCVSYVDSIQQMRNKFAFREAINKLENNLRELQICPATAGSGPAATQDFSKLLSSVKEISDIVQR
# [24] = target: NEK3 (human) (UniProt P51956)
# [25] = target: MAP3K8 (human) (UniProt P41279)
# Sequence of MAP3K8 (human) (P41279 whole entry, looked up): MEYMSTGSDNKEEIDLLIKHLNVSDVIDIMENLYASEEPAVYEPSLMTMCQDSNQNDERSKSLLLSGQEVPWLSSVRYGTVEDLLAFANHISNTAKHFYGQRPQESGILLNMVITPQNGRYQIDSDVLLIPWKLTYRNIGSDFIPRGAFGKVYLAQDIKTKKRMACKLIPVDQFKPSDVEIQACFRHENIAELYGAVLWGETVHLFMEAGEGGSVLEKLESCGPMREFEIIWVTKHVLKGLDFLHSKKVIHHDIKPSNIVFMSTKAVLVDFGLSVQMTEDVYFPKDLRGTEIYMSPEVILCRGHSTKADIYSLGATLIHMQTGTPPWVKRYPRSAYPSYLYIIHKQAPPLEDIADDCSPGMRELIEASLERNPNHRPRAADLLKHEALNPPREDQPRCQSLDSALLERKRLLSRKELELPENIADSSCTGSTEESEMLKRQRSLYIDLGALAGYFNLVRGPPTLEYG
# [26] = target: MAP2K1 (human) (UniProt Q02750)
# [27] = target: CDK7 CCNH MNAT1 (human) (UniProt P50613+P51948+P51946)
# [28] = target: PBK (human) (UniProt Q96KB5)
# [29] = target: CSNK2A1 (human) (UniProt P68400)
# [30] = target: MAP3K9 (human) (UniProt P80192)
# [31] = target: ACVR1B (human) (UniProt P36896)
# [32] = target: TXK (human) (UniProt P42681)
# [33] = target: PRKD1 (human) (UniProt Q15139)
# [34] = target: CSK (human) (UniProt P41240)
# [35] = target: NTRK3 (human) (UniProt Q16288)
# [36] = target: DDR2 (human) (UniProt Q16832)
# [37] = target: MAP3K3 (human) (UniProt Q99759)
# Sequence of MAP3K3 (human) (Q99759 whole entry, looked up): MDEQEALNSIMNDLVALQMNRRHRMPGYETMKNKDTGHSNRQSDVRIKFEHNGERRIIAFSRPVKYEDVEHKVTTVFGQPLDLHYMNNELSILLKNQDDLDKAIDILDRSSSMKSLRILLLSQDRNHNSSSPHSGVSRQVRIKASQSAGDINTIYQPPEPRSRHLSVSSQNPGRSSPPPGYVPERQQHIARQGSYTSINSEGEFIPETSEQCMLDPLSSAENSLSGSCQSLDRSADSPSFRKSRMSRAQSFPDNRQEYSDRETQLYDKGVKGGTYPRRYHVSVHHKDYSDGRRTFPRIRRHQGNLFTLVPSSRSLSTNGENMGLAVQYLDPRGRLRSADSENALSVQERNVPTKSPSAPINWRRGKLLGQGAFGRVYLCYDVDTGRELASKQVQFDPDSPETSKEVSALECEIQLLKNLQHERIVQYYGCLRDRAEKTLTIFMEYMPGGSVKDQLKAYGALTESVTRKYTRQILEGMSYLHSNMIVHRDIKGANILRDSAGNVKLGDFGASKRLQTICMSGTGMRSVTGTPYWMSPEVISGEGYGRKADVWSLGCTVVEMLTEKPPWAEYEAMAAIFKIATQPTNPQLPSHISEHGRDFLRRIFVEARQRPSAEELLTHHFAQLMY
# [38] = target: MARK3 (human) (UniProt P27448)
# [39] = target: MAP3K10 (human) (UniProt Q02779)
# [40] = target: EPHA1 (human) (UniProt P21709)
# Sequence of EPHA1 (human) (P21709 whole entry, looked up): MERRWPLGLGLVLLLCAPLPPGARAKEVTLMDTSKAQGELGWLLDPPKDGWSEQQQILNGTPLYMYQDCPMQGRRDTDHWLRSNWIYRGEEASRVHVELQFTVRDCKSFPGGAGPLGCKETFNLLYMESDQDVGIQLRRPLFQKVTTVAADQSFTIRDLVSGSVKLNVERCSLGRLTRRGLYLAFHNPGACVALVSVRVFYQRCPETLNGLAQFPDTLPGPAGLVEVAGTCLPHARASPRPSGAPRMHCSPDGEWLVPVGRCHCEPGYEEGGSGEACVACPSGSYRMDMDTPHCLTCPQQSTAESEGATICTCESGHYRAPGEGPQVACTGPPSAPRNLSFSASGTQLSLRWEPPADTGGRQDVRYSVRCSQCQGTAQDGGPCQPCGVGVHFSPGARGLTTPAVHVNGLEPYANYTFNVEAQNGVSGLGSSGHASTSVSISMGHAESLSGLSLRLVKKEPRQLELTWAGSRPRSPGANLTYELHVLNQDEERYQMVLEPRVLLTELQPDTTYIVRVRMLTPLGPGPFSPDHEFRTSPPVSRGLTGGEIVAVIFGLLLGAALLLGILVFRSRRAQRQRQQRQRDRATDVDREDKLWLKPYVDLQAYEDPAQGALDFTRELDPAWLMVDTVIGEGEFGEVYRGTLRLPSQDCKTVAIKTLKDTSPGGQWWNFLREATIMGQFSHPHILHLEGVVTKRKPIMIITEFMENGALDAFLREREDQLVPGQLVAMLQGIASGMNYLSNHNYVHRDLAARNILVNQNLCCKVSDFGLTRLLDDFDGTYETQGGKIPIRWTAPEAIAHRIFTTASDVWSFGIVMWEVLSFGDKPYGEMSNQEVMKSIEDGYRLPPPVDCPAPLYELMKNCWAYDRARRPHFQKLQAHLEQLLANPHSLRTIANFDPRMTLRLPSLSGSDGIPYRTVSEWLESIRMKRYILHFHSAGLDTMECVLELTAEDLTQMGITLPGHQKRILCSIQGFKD
# [41] = target: PLK2 (human) (UniProt Q9NYY3)
# [42] = target: RET (human) (UniProt P07949)
structure (smiles),measurement,setting,value
O=C1C(Cl)=C(N2C(=O)CCC2=O)C(=O)c2ccccc21,residual activity,[1],109%
same,residual activity,[2],100%
same,residual activity,[3],98.2%
same,residual activity,[4],95.8%
same,residual activity,[5],103%
same,residual activity,[6],86.1%
same,residual activity,[7],114%
same,residual activity,[8],96.7%
same,residual activity,[9],115%
same,residual activity,[10],104%
same,residual activity,[11],95.4%
same,residual activity,[12],97.5%
same,residual activity,[13],110%
same,residual activity,[14],100%
same,residual activity,[15],103%
same,residual activity,[16],93.5% and 97%
same,residual activity,[17],99.2%
same,residual activity,[18],103%
same,residual activity,[19],91.5%
same,residual activity,[20],101%
same,residual activity,[21],101%
same,residual activity,[22],84.8%
same,residual activity,[23],103%
same,residual activity,[24],102%
same,residual activity,[25],91.8%
same,residual activity,[26],76.5%
same,residual activity,[27],101%
same,residual activity,[28],106%
same,residual activity,[29],99.3%
same,residual activity,[30],106%
same,residual activity,[31],106%
same,residual activity,[32],95.5%
same,residual activity,[33],104%
same,residual activity,[34],79.5%
same,residual activity,[35],98.6%
same,residual activity,[36],95.8%
same,residual activity,[37],95.5%
same,residual activity,[38],87.8%
same,residual activity,[39],92.8%
same,residual activity,[40],97.6%
same,residual activity,[41],96%
same,residual activity,[42],98%
N#Cc1c[nH]c2c[nH]/c(=N\Cc3cccnc3)cc2/c1=N\c1ccc(F)c(Cl)c1,residual activity,[1],94.3%
same,residual activity,[2],101%
same,residual activity,[3],96.1%
same,residual activity,[4],98.3%
same,residual activity,[5],100%
same,residual activity,[6],90.1%
same,residual activity,[7],101%
same,residual activity,[8],95.5%
same,residual activity,[9],92%
same,residual activity,[10],91.2%
same,residual activity,[11],96.3%
same,residual activity,[12],111%
same,residual activity,[13],72.6%
same,residual activity,[14],99.8%
same,residual activity,[15],84%
same,residual activity,[16],90.4% and 94.1%
same,residual activity,[17],86.1%
same,residual activity,[18],65.2%
same,residual activity,[19],89.9%
same,residual activity,[20],103%
same,residual activity,[21],82.5%
same,residual activity,[22],85.3%
same,residual activity,[23],93.4%
same,residual activity,[24],56%
same,residual activity,[25],79.1%
same,residual activity,[26],86.2%
same,residual activity,[27],87.4%
same,residual activity,[28],84.8%
same,residual activity,[29],95.9%
same,residual activity,[30],87.5%
same,residual activity,[31],99%
same,residual activity,[32],88.1%
same,residual activity,[33],94.5%
same,residual activity,[34],95.2%
same,residual activity,[35],93.2%
same,residual activity,[36],91.9%
same,residual activity,[37],75%
same,residual activity,[38],101%
same,residual activity,[39],101%
same,residual activity,[40],94.5%
same,residual activity,[41],110%
same,residual activity,[42],107%
CS(=O)(=O)CCNCc1ccc(-c2ccc3ncnc(Nc4ccc(OCc5cccc(F)c5)c(Cl)c4)c3c2)o1,residual activity,[1],108%
same,residual activity,[2],88%
same,residual activity,[3],102%
same,residual activity,[4],107%
same,residual activity,[5],96.7%
same,residual activity,[6],101%
same,residual activity,[7],97.4%
same,residual activity,[8],93.2%
same,residual activity,[9],93.4%
same,residual activity,[10],111%
same,residual activity,[11],90.2%
same,residual activity,[12],79.3%
same,residual activity,[13],11.2%
same,residual activity,[14],98.1%
same,residual activity,[15],105%
same,residual activity,[16],103% and 104%
same,residual activity,[17],105%
same,residual activity,[18],93.1%
same,residual activity,[19],97.5%
same,residual activity,[20],81%
same,residual activity,[21],66.5%
same,residual activity,[22],110%
same,residual activity,[23],96.4%
same,residual activity,[24],99.6%
same,residual activity,[25],99.7%
same,residual activity,[26],105%
same,residual activity,[27],109%
same,residual activity,[28],105%
same,residual activity,[29],121%
same,residual activity,[30],112%
same,residual activity,[31],98.7%
same,residual activity,[32],110%
same,residual activity,[33],99.4%
same,residual activity,[34],106%
same,residual activity,[35],103%
same,residual activity,[36],107%
same,residual activity,[37],110%
same,residual activity,[38],95.9%
same,residual activity,[39],108%
same,residual activity,[40],99.3%
same,residual activity,[41],103%
same,residual activity,[42],99.8%
